For data set [1], the target named is T1, homoserine dehydrogenase (Corynebacterium glutamicum, UniProt P08499).
T1 construct: Crude cell lysates for homoserine dehydrogenase assays were prepared from 500 ml MMCG C. glutamicum AS019 and R102 cultures; endogenous in cells; host or cells: C. glutamicum AS019 and AS019E12/pMF33 (chromosomal wild-type hom); R102 (chromosomal hom^dr); AS019E12/pJD4 (plasmid-borne hom^dr beside chromosomal wild-type hom)
In words: Homoserine dehydrogenase activity in crude cell extracts (initial decrease in absorbance at 340 nm by NADPH). In kind it is biochemical, C. glutamicum. The protocol: Verified pJD4/AS019EI2 transformants were selected for the presence of the plasmid by growth on kanamycin supplemented mediums. The activity of the homoserine dehydrogenase from crude cell extracts of these cultures was determined in the presence and absence of L-threonine. A host cell encoding wild type homoserine dehydrogenase would be inactivated in the presence of 10 mM L-threonine. […] Therefore, homoserine dehydrogenase activity in the presence of L-threonine was derived from the cloned hom^dr gene. The specific activity of the deregulated homoserine dehydrogenase is approximately the same as that reported for the C. glutamicum chromosomal hom gene (0.0450 μM ml^−1min^1) The cloned hom^dr gene product was functional even in the presence of 120 mM L-threonine.
One ml of the supernatant from an overnight 10 ml MMCG culture of an alpha-hydroxy-valerate tolerant C. glutamicum isolate was filter sterilized and added 1:10 to a fresh 10 ml MMCG medium. […] Growth of AS155 was determined by densitometry after a 24 hour incubation at 30° C. […] The activity of homoserine dehydrogenase in crude cell extracts of C. glutamicum R102 and AS019 in the presence of both threonine and alpha-hydroxy-valerate was measured. […] Homoserine dehydrogenase activity was assayed by determining the initial decrease in the absorbance at 340 nm by NADPH as described by Follettie et al., Mol. Microbiol. […]

Data set [2] deals with T2, homoserine dehydrogenase enzyme of C. glutamicum (Corynebacterium glutamicum, UniProt P08499).
T2 sequence (P08499 1-445): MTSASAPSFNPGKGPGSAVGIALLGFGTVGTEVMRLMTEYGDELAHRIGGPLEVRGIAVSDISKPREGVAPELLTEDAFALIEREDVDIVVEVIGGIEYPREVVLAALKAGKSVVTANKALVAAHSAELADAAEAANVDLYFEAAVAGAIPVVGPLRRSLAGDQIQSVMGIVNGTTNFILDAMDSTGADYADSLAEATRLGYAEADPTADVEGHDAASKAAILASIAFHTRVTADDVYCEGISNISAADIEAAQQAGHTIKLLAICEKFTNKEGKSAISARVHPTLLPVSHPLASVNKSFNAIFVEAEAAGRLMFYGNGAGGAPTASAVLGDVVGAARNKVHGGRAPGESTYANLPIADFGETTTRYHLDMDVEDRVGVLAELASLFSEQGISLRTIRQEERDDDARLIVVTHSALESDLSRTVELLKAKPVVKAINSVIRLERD
The settings on record: threonine inhibition of C. glutamicum homoserine dehydrogenase; read-out: inhibition rate constant (Ki); cited from earlier work.

Data set [3] concerns the target T3, homoserine dehydrogenase (Corynebacterium glutamicum, UniProt P08499).
T3 construct: Crude cell lysates for homoserine dehydrogenase assays were prepared from 500 ml MMCG C. glutamicum AS019 and R102 cultures; endogenous in cells; host or cells: C. glutamicum AS019 and AS019E12/pMF33 (chromosomal wild-type hom); R102 (chromosomal hom^dr); AS019E12/pJD4 (plasmid-borne hom^dr beside chromosomal wild-type hom)
T3 sequence (P08499 whole entry, looked up): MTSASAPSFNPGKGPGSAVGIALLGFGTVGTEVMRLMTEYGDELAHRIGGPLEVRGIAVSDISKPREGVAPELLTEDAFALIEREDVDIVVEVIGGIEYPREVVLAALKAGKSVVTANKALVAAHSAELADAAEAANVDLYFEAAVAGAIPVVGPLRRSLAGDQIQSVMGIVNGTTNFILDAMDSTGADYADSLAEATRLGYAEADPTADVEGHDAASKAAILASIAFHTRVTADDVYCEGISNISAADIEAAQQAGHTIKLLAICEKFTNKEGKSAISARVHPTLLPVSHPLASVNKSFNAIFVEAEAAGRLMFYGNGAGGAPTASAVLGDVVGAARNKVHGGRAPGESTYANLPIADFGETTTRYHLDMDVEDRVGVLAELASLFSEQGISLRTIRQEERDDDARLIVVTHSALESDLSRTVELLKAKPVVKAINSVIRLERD
More on the design: specific activity reported for the C. glutamicum chromosomal hom gene: unit not given here. To be noted: reported value, cited from earlier work.

By Ki is commonly meant the dissociation constant of the complex between target and ligand, obtained from inhibition or displacement.

With `C[C@@H](O)[C@H](N)C(=O)O` [L-threonine], the “effect of 10 mM L-threonine on wild type homoserine dehydrogenase” value at homoserine dehydrogenase [1] is “inactivate”. Moreover, the Ki in data set [2] is 160 µM.

B1: wild type: wild type C. glutamicum homoserine dehydrogenase (SEQ ID NO:2) (protein)
chain: MTSASAPSFNPGKGPGSAVGIALLGFGTVGTEVMRLMTEYGDELAHRIGGPLEVRGIAVSDISKPREGVAPELLTEDAFALIEREDVDIVVEVIGGIEYPREVVLAALKAGKSVVTANKALVAAHSAELADAAEAANVDLYFEAAVAGAIPVVGPLRRSLAGDQIQSVMGIVNGTTNFILDAMDSTGADYADSLAEATRLGYAEADPTADVEGHDAASKAAILASIAFHTRVTADDVYCEGISNISAADIEAAQQAGHTIKLLAICEKFTNKEGKSAISARVHPTLLPVSHPLASVNKSFNAIFVEAEAAGRLMFYGNGAGGAPTASAVLGDVVGAARNKVHGGRAPGESTYANLPIADFGETTTRYHLDMDVEDRVGVLAELASLFSEQGISLRTIRQEERDDDARLIVVTHSALESDLSRTVELLKAKPVVKAINSVIRLERD
Turning to B1, the “specific activity reported for the C. glutamicum chromosomal hom gene” value with homoserine dehydrogenase [3] is reported as 0.0450. Moreover, the “specific activity reported for wild type” value in the data set with homoserine dehydrogenase [3] (wild type homoserine dehydrogenase) is recorded as 0.0450 μM ml^−1min^−1.

These data come from patent US6649379B1, “Method and deregulated enzyme for threonine production” (priority 1987, dated 2003).
